# Data: ChEMBL document CHEMBL1128082, “Inhibition of an HIV-1 Tat-derived peptide binding to TAR RNA by aminoglycoside antibiotics” (Bioorg Med Chem Lett, 1995)
# Molecular target: Nucleic Acid
# Assay: Concentration required for the inhibition of HIV- 1 Tat-derived peptide binding to TAR RNA.
# Assay type: nucleic-acid assay
row,IC50,Compound
1,0.92 µM,NC[C@@H]1O[C@H](O[C@H]2[C@@H](O)[C@H](O[C@@H]3[C@@H](O)[C@H](N)C[C@H](N)[C@H]3O[C@H]3O[C@H](CN)[C@@H](O)[C@H](O)[C@H]3N)O[C@@H]2CO)[C@H](N)[C@@H](O)[C@@H]1O [FRAMYCETIN]
2,9.5 µM,CN[C@@H]1[C@H](O[C@H]2[C@H](O[C@H]3[C@H](O)[C@@H](O)[C@H](N=C(N)N)[C@@H](O)[C@@H]3N=C(N)N)O[C@@H](C)[C@]2(O)C=O)O[C@@H](CO)[C@H](O)[C@H]1O [STREPTOMYCIN]

row,Compound,IC50
1,GENTAMICIN,45 µM
